{"source": "patent EP0182152B1", "about": "“Antitumor antibiotics (LL-E33288 Complex)” (AMERICAN CYANAMID COMPANY, priority 1984, dated 1986)", "key": {"melanotic melanoma B16": {"test_system": "melanotic melanoma B16", "experiment": "Melanotic Melanoma B16 Test", "type": "in vivo, BDF1 mice", "settings": "Table V, i.p. days 1 through 9, control 16 days", "excerpt": "(§1) Certain in vivo testing systems and protocols have been developed by the National Cancer Institute for testing compounds to determine their suitability as anti-neoplastic agents. These have been reported in \"Cancer Chemotherapy Reports\", Part III, Vol. 3, No. 2 (1972), Geran, et al. These protocols have established standardized screening tests which are generally followed in the field of testing for antitumor agents. Of these systems, lymphocytic leukemia P388, melanotic melanoma B16, L1210 leukemia and colon 26 adenocarcinoma are particularly significant to the present invention. These neoplasms are utilized for testing as transplantable tumors in mice. Generally, significant anti-tumor activity, shown in these protocols by a percentage increase of mean survival times of the treated animals (T) over the control animals (C), is indicative of similar results in human leukemias and solid tumors.\nThe animals used were BDF1 mice, all of the same sex, weighing a minimum of 17 g and all within a 3 g weight range. There are normally 6 animals per test group. A 1 g portion of melanotic melanoma β16 tumor was homogenized in 10 ml of cold balanced salt solution and a 0.5 ml aliquot of the homogenate was implanted intraperitoneally into each of the test mice. LL-E33288 antibiotics were tested in the β16 system both as the individual β1-Br and γ1-Br components and as a complex of all components (Bromo-complex). The test compounds were administered intraperitioneally on days 1 through 9 (relative to tumor inoculation) at various doses. The mice were weighed and survivors recorded on a regular basis for 60 days. The median survival time and the ratio of survival time for treated (T)/control (C) animals were calculated. The positive control compounds were Cisplatin or Adriamycin. The results of this test appear in Table V. If T/C X 100 (%) is 125 or over, the tested compound is considered to have significant anti-tumor activity.\n(§2) In the same manner, the following iodo-components were tested for antineoplastic activity."}, "[1]": {"test_system": "lymphocytic leukemia L1210", "experiment": "Lymphocytic Leukemia L1210 Test", "type": "in vivo, BDF1 mice", "settings": "Table VI, i.p., control 8.3 days", "excerpt": "as §1\nThe animals used were BDF1 mice, all of one sex, weighing a minimum of 17 g and all within a 3 g weight range. There were 6 mice in each test group and 18 in control groups. The tumor transplant was by intraperitoneal injection of 0.5 ml of lymphocytic leukemia L1210 at a concentration of 10^5 cells per mouse. LL-E33288 antibiotics were tested in the L1210 system both as the individual β1-Br component and as a complex of all components (Bromo-complex). The test compounds were administered on days 1, 5 and 9 or days 1 through 9 (relative to tumor inoculation) at various doses. The mice were weighed and survivors recorded on a regular basis for 30 days. The median survival time and the ratio of survival time for treated (T)/control (C) animals were calculated. The positive control compound was 1,4-dihydroxy-5,8-bis[[2-(2-hydroxyethylamino)ethyl]amino]anthraquinone dihydrochloride or Cisplatin given intraperitoneally at the indicated dose. If T/C X 100 (%) is 125 or over, the tested compound is considered to have significant anti-tumor activity.\nas §2"}, "[2]": {"test_system": "lymphocytic leukemia P388", "experiment": "Lymphocytic Leukemia P388 Test", "type": "in vivo, BDF1 mice", "settings": "Table IV, i.p. days 1, 5 and 9", "excerpt": "as §1\nThe animals used were BDF1 mice, all of one sex, weighing a minimum of 17 g and all within a 3 g weight range. There were 5 or 6 mice per test group. The tumor transplant was by intraperitoneal injection of 0.5 ml of dilute ascitic fluid containing 10^6 cells of lymphocytic leukemia P388. LL-E33288 antibiotics were tested in the P388 system both as the individual β1-Br and […] components and as a complex of all components (Bromo-complex). The test compounds were administered intrapertioneally at a volume of 0.5 ml in 0.2% Klucel in normal saline on days 1, 5 and 9 (relative to tumor inoculation) at the indicated doses. The mice were weighed and the survivors recorded on a regular basis for 30 days. The median survival time and the ratio of survival time for treated (T)/control (C) animals were calculated. The positive control compound was Cisplatin given as an intraperitioneal injection in 0.5 ml of 0.2% Klucel on days 1, 5 and 9 at the indicated doses.\nIf T/C X 100 (%) is 125 or over, the tested compound is considered to have significant anti-tumor activity.\nas §2"}, "Colon 26 tumor": {"test_system": "Colon 26 tumor", "experiment": "Colon 26 Adenocarcinoma Test", "type": "in vivo, CD2F1 female mice", "excerpt": "as §1\nThe animals used were CD2F1 female mice weighing a minimum of 17 g and all within a 3 g weight range. There were 5 or 6 mice per test group with three groups of 5 or 6 animals used as untreated controls for each test. The tumor implant was by intraperitoneal (or subcutaneous) injection of 0.5 ml of a 2% Colon 26 tumor brei in Eagle's MEM medium containing antibiotics. LL-E33288 antibiotics were tested in the Colon 26 system as a complex (Bromo-complex) of all components. The test compounds were administered intraperitoneally on days 1, 5 and 9 (relative to tumor implant doses). The mice were weighed and deaths recorded on a regular basis for 30 days. The median survival times for treated (T)/control (C) animals were calculated. The positive control compound was Cisplatin. If T/C X 100 (%) is 130 or over, the tested compound is considered to have significant anti-tumor activity.\nas §2"}, "[3]": {"settings": "dose 0.06 mg/kg, control 10.6 days"}, "[4]": {"settings": "dose 0.06 mg/kg, control 12.4 days"}, "[5]": {"settings": "dose 0.25 mg/kg, control 10.6 days"}, "[6]": {"settings": "dose 0.4 mg/kg, control 12.4 days"}, "[7]": {"settings": "dose 1.0 mg/kg, control 10.6 days"}, "[8]": {"settings": "dose 1.0 mg/kg, control 12.4 days"}, "[9]": {"settings": "Table VII, i.p. days 1, 5 and 9, dose 0.25 mg/kg, control 18.6 days"}, "[10]": {"settings": "Table VII, i.p. days 1, 5 and 9, dose 0.5 mg/kg, control 18.6 days"}, "[11]": {"settings": "Table VII, i.p. days 1, 5 and 9, dose 1 mg/kg, control 18.6 days"}, "[12]": {"settings": "Table XII, dose 0.5 mg/kg, control 18.5 days"}, "[13]": {"settings": "Table XII, dose 1 mg/kg, control 18.5 days"}, "[14]": {"settings": "Table XII, dose 2 mg/kg, control 18.5 days"}}}
{"compound": "N.N.[Cl][Pt][Cl]", "note": "[Cisplatin, reference compound]", "values": [{"measurement": "Median Survival", "setting": "melanotic melanoma B16; dose 0.05 mg/kg", "value": 21.5, "unit": "days"}, {"measurement": "T/C x 100", "setting": "melanotic melanoma B16; dose 0.05 mg/kg", "value": 134, "unit": "%"}, {"measurement": "Median Survival", "setting": "melanotic melanoma B16; dose 0.1 mg/kg", "value": 23, "unit": "days"}, {"measurement": "T/C x 100", "setting": "melanotic melanoma B16; dose 0.1 mg/kg", "value": 144, "unit": "%"}, {"measurement": "Median Survival", "setting": "melanotic melanoma B16; dose 0.2 mg/kg", "value": 25, "unit": "days"}, {"measurement": "T/C x 100", "setting": "melanotic melanoma B16; dose 0.2 mg/kg", "value": 156, "unit": "%"}, {"measurement": "Median Survival", "setting": "melanotic melanoma B16; dose 0.4 mg/kg", "value": 25, "unit": "days"}, {"measurement": "T/C x 100", "setting": "melanotic melanoma B16; dose 0.4 mg/kg", "value": 156, "unit": "%"}, {"measurement": "Median Survival", "setting": "[1]; dose 1.25 mg/kg", "value": 11, "unit": "days"}, {"measurement": "T/C x 100", "setting": "[1]; dose 1.25 mg/kg", "value": 133, "unit": "%"}, {"measurement": "Median Survival", "setting": "[1]; dose 2.5 mg/kg", "value": 12, "unit": "days"}, {"measurement": "T/C x 100", "setting": "[1]; dose 2.5 mg/kg", "value": 145, "unit": "%"}, {"measurement": "Median Survival", "setting": "[1]; dose 5 mg/kg", "value": 7.5, "unit": "days"}, {"measurement": "T/C x 100", "setting": "[1]; dose 5 mg/kg", "value": 90, "unit": "%"}, {"measurement": "Median Survival", "setting": "[2]; [3]", "value": 14.5, "unit": "days"}, {"measurement": "T/C x 100", "setting": "[2]; [3]", "value": 137, "unit": "%"}, {"measurement": "Median Survival", "setting": "[2]; [4]", "value": 15, "unit": "days"}, {"measurement": "T/C x 100", "setting": "[2]; [4]", "value": 121, "unit": "%"}, {"measurement": "Median Survival", "setting": "[2]; [5]", "value": 15, "unit": "days"}, {"measurement": "T/C x 100", "setting": "[2]; [5]", "value": 142, "unit": "%"}, {"measurement": "Median Survival", "setting": "[2]; [6]", "value": 19, "unit": "days"}, {"measurement": "T/C x 100", "setting": "[2]; [6]", "value": 153, "unit": "%"}, {"measurement": "Median Survival", "setting": "[2]; [7]", "value": 21.5, "unit": "days"}, {"measurement": "T/C x 100", "setting": "[2]; [7]", "value": 203, "unit": "%"}, {"measurement": "Median Survival", "setting": "[2]; [8]", "value": 25.5, "unit": "days"}, {"measurement": "T/C x 100", "setting": "[2]; [8]", "value": 206, "unit": "%"}, {"measurement": "Median Survival", "setting": "Colon 26 tumor; [9]", "value": 37.5, "unit": "days"}, {"measurement": "T/C x 100", "setting": "Colon 26 tumor; [9]", "value": 202, "unit": "%"}, {"measurement": "Median Survival", "setting": "Colon 26 tumor; [10]", "value": 38.5, "unit": "days"}, {"measurement": "T/C x 100", "setting": "Colon 26 tumor; [10]", "value": 207, "unit": "%"}, {"measurement": "Median Survival", "setting": "Colon 26 tumor; [11]", "value": 29, "unit": "days"}, {"measurement": "T/C x 100", "setting": "Colon 26 tumor; [11]", "value": 156, "unit": "%"}, {"measurement": "Median Survival", "setting": "Colon 26 tumor; [12]", "value": 23.5, "unit": "days"}, {"measurement": "T/C x 100", "setting": "Colon 26 tumor; [12]", "value": 127, "unit": "%"}, {"measurement": "Median Survival", "setting": "Colon 26 tumor; [13]", "value": 27.5, "unit": "days"}, {"measurement": "T/C x 100", "setting": "Colon 26 tumor; [13]", "value": 149, "unit": "%"}, {"measurement": "Median Survival", "setting": "Colon 26 tumor; [14]", "value": 15.5, "unit": "days"}, {"measurement": "T/C x 100", "setting": "Colon 26 tumor; [14]", "value": 84, "unit": "%"}]}
